Reference: PubChem BioAssay (NCI)
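Cultured in 96-well plates, cells were exposed to test compound for 48 hours across five concentrations. Abbreviation: GI50, concentration required for 50% inhibition of growth. TGI is the concentration that stops growth completely.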

What was measured:
Assay in all cases: DTP human tumour cell line panel, 48 h
K-562 leukemia = system: K-562 leukemia
BT-549 breast = system: BT-549 breast
KM12 colon = system: KM12 colon
SNB-19 CNS = system: SNB-19 CNS
OVCAR-3 ovarian = system: OVCAR-3 ovarian
UACC-62 melanoma = system: UACC-62 melanoma
HS 578T breast = system: HS 578T breast
SK-MEL-28 melanoma = system: SK-MEL-28 melanoma
OVCAR-4 ovarian = system: OVCAR-4 ovarian
A549 NSCLC = system: A549 NSCLC
RXF 393 renal = system: RXF 393 renal
M14 melanoma = system: M14 melanoma
CAKI-1 renal = system: CAKI-1 renal
EKVX NSCLC = system: EKVX NSCLC
SK-OV-3 ovarian = system: SK-OV-3 ovarian
MALME-3M melanoma = system: MALME-3M melanoma
NCI-H23 lung = system: NCI-H23 lung
SW-620 colon = system: SW-620 colon
NCI-H226 lung = system: NCI-H226 lung
LOX IMVI melanoma = system: LOX IMVI melanoma
NCI-H522 lung = system: NCI-H522 lung
HCT-116 colon = system: HCT-116 colon
SF-268 CNS = system: SF-268 CNS
SK-MEL-2 melanoma = system: SK-MEL-2 melanoma
OVCAR-8 ovarian = system: OVCAR-8 ovarian
TK-10 renal = system: TK-10 renal
U251 CNS = system: U251 CNS
MOLT-4 leukemia = system: MOLT-4 leukemia
HCC-2998 colon = system: HCC-2998 colon
SF-295 CNS = system: SF-295 CNS
HOP-62 NSCLC = system: HOP-62 NSCLC
MDA-MB-435 = system: MDA-MB-435
SN12C renal = system: SN12C renal
MDA-MB-231 breast = system: MDA-MB-231 breast
SNB-75 CNS = system: SNB-75 CNS
RPMI-8226 leukemia = system: RPMI-8226 leukemia
UACC-257 melanoma = system: UACC-257 melanoma
NCI/ADR-RES ovarian = system: NCI/ADR-RES ovarian
OVCAR-5 ovarian = system: OVCAR-5 ovarian
SK-MEL-5 melanoma = system: SK-MEL-5 melanoma
COLO 205 colon = system: COLO 205 colon
SR leukemia = system: SR leukemia
A498 renal = system: A498 renal
PC-3 prostate = system: PC-3 prostate
UO-31 renal = system: UO-31 renal
786-0 renal = system: 786-0 renal
SF-539 CNS = system: SF-539 CNS
NCI-H460 lung = system: NCI-H460 lung
HCT-15 colon = system: HCT-15 colon
IGROV1 ovarian = system: IGROV1 ovarian
HOP-92 NSCLC = system: HOP-92 NSCLC
DU-145 prostate = system: DU-145 prostate
CCRF-CEM leukemia = system: CCRF-CEM leukemia
ACHN renal = system: ACHN renal
MCF7 breast = system: MCF7 breast
T-47D breast = system: T-47D breast
HT29 colon = system: HT29 colon

Work on `O=C1NC(=C(Cl)Cl)/C(=N/S(=O)(=O)N2CCCCC2CC2(C(F)(F)F)N=N2)N1` (centres undefined) yielded a GI50 (K-562 leukemia) of 0.628 µM, a TGI (K-562 leukemia) of 10.8 µM and a GI50 (BT-549 breast) of 1.89 µM. The TGI (BT-549 breast) was 3.67 µM, the GI50 (KM12 colon) was 3.14 µM and the TGI (KM12 colon) was 12.2 µM. The GI50 (SNB-19 CNS) was 2 µM, the TGI (SNB-19 CNS) was 4.53 µM and the GI50 (OVCAR-3 ovarian) was 2.05 µM. It also gave a TGI (OVCAR-3 ovarian) of 4.13 µM, a GI50 (UACC-62 melanoma) of 1.74 µM and a TGI (UACC-62 melanoma) of 3.57 µM. The GI50 (HS 578T breast) was 2.83 µM, the TGI (HS 578T breast) was 9.84 µM and the GI50 (SK-MEL-28 melanoma) was 1.85 µM. The TGI (SK-MEL-28 melanoma) was 3.33 µM, the GI50 (OVCAR-4 ovarian) was 1.76 µM and the TGI (OVCAR-4 ovarian) was 3.2 µM. For the same compound, the GI50 (A549 NSCLC) was 3.72 µM, the TGI (A549 NSCLC) was 14 µM and the GI50 (RXF 393 renal) was 1.67 µM. The TGI (RXF 393 renal) was 3.22 µM, the GI50 (M14 melanoma) was 1.85 µM and the TGI (M14 melanoma) was 3.93 µM. For the same compound, the GI50 (CAKI-1 renal) was 1.7 µM, the TGI (CAKI-1 renal) was 3.09 µM and the GI50 (EKVX NSCLC) was 2.04 µM. It also gave a TGI (EKVX NSCLC) of 4.33 µM, a GI50 (SK-OV-3 ovarian) of 15.1 µM and a TGI (SK-OV-3 ovarian) of 29.8 µM. It also gave a GI50 (MALME-3M melanoma) of 1.57 µM, a TGI (MALME-3M melanoma) of 2.99 µM and a GI50 (NCI-H23 lung) of 1.71 µM. For the same compound, the TGI (NCI-H23 lung) was 3.77 µM, the GI50 (SW-620 colon) was 1.67 µM and the TGI (SW-620 colon) was 3.24 µM. It also gave a GI50 (NCI-H226 lung) of 15.5 µM, a TGI (NCI-H226 lung) of 44.4 µM and a GI50 (LOX IMVI melanoma) of 0.43 µM. The TGI (LOX IMVI melanoma) was 1.58 µM, the GI50 (NCI-H522 lung) was 1.54 µM and the TGI (NCI-H522 lung) was 3.13 µM. The GI50 (HCT-116 colon) was 1.73 µM, the TGI (HCT-116 colon) was 3.26 µM and the GI50 (SF-268 CNS) was 3.35 µM. For the same compound, the TGI (SF-268 CNS) was 13.1 µM, the GI50 (SK-MEL-2 melanoma) was 1.86 µM and the TGI (SK-MEL-2 melanoma) was 3.9 µM. For the same compound, the GI50 (OVCAR-8 ovarian) was 2.21 µM, the TGI (OVCAR-8 ovarian) was 5.17 µM and the GI50 (TK-10 renal) was 4.53 µM. For the same compound, the TGI (TK-10 renal) was 14.2 µM, the GI50 (U251 CNS) was 1.86 µM and the TGI (U251 CNS) was 3.67 µM. The GI50 (MOLT-4 leukemia) was 1.68 µM, the TGI (MOLT-4 leukemia) was 4.43 µM and the GI50 (HCC-2998 colon) was 1.86 µM. The TGI (HCC-2998 colon) was 3.38 µM, the GI50 (SF-295 CNS) was 3.23 µM and the TGI (SF-295 CNS) was 12.1 µM. It also gave a GI50 (HOP-62 NSCLC) of 3.22 µM, a TGI (HOP-62 NSCLC) of 13.5 µM and a GI50 (MDA-MB-435) of 2.24 µM. It also gave a TGI (MDA-MB-435) of 5.38 µM, a GI50 (SN12C renal) of 1.29 µM and a TGI (SN12C renal) of 2.57 µM. The GI50 (MDA-MB-231 breast) was 1.73 µM, the TGI (MDA-MB-231 breast) was 3.44 µM and the GI50 (SNB-75 CNS) was 3.5 µM. The TGI (SNB-75 CNS) was 17.4 µM, the GI50 (RPMI-8226 leukemia) was 0.385 µM and the TGI (RPMI-8226 leukemia) was 8.08 µM. The GI50 (UACC-257 melanoma) was 1.96 µM, the TGI (UACC-257 melanoma) was 4.48 µM and the GI50 (NCI/ADR-RES ovarian) was 3.45 µM. It also gave a TGI (NCI/ADR-RES ovarian) of 15.4 µM, a GI50 (OVCAR-5 ovarian) of 1.9 µM and a TGI (OVCAR-5 ovarian) of 3.84 µM. For the same compound, the GI50 (SK-MEL-5 melanoma) was 2.4 µM, the TGI (SK-MEL-5 melanoma) was 5.93 µM and the GI50 (COLO 205 colon) was 1.89 µM. The TGI (COLO 205 colon) was 3.68 µM, the GI50 (SR leukemia) was 0.431 µM and the TGI (SR leukemia) was 2.67 µM. For the same compound, the GI50 (A498 renal) was 11.4 µM, the TGI (A498 renal) was 24.1 µM and the GI50 (PC-3 prostate) was 2.26 µM. For the same compound, the TGI (PC-3 prostate) was 6.37 µM, the GI50 (UO-31 renal) was 2.69 µM and the TGI (UO-31 renal) was 12.4 µM. The GI50 (786-0 renal) was 3.2 µM, the TGI (786-0 renal) was 9.62 µM and the GI50 (SF-539 CNS) was 1.79 µM. The TGI (SF-539 CNS) was 3.56 µM, the GI50 (NCI-H460 lung) was 3.06 µM and the TGI (NCI-H460 lung) was 10.7 µM. It also gave a GI50 (HCT-15 colon) of 0.398 µM, a TGI (HCT-15 colon) of 1.5 µM and a GI50 (IGROV1 ovarian) of 1.58 µM. The TGI (IGROV1 ovarian) was 3.09 µM, the GI50 (HOP-92 NSCLC) was 1.73 µM and the TGI (HOP-92 NSCLC) was 3.61 µM. The GI50 (DU-145 prostate) was 3.47 µM, the TGI (DU-145 prostate) was 11.8 µM and the GI50 (CCRF-CEM leukemia) was 1.99 µM. The TGI (CCRF-CEM leukemia) was 5.57 µM, the GI50 (ACHN renal) was 1.74 µM and the TGI (ACHN renal) was 3.12 µM. For the same compound, the GI50 (MCF7 breast) was 0.769 µM, the TGI (MCF7 breast) was 11.8 µM and the GI50 (T-47D breast) was 4.16 µM. It also gave a TGI (T-47D breast) of 22.1 µM, a GI50 (HT29 colon) of 1.88 µM and a TGI (HT29 colon) of 3.61 µM.
